Measured values published in patent EP0286418A1, “Anti-retroviral agents and delivery systems for the same” (priority 1987, dated 1988).
Several values for one entry are separate records, joined by “and”; a condition that tells them apart may be missing. Equal values may be shown once. One block for each compound: values may come before it.

What was measured:
[1] = volume of encapsulation in liposomes; type: physicochemical; conditions: freeze-thawed multilamellar EPC/PS/cholesterol liposomes; 8 mM solute
Protocol: 2ʹ,3ʹ-dideoxyguanosine 5ʹ-triphosphate (ddGTP), 2ʹ,3ʹ-dideoxyadenosine 5ʹ-triphosphate (ddATP), 2ʹ,3ʹ-dideoxythymidine 5ʹ-triphosphate (ddTTP), 2ʹ,3ʹ-dideoxycytidine 5ʹ-diphosphate (ddCDP), and 2ʹ,3ʹ-dideoxy cytidine 5ʹ-monophosphate (ddCMP) were obtained from Pharmacia (Piscataway, N.J., USA). Liposomes containing each of these agents were prepared using 56 mg EPC, 29 mg PS, 33 mg cholesterol, and 0.125 micro Ci ¹⁴C-cholesteryl oleate. Solutions for encapsulation were 8 mM nucleoside or nucleotide in phosphate-buffered saline pH 7. Liposomes were prepared essentially as described in Example 2, by drying lipid onto the walls of a glass vial, hydrating the lipid with a portion of the solution to be encapsulated, vortex-mixing, and freeze-thawing 5 times with liquid nitrogen. However, the lipid was hydrated in 0.8 ml, rather than 1.0 ml, and the extrusion step was eliminated. […] The preparation was washed by centrifugation 3 times to remove unencapsulated solute. The volume encapsulated was determined by extraction, using equal volumes of chloroform:methanol (65:25) and phosphate buffered saline. The nucleoside and nucleotide solutes partitioned largely into the aqueous phase, whereas lipid was found in the organic phase and near the interface after centrifugation. The amount of solute encapsulated was determined by standard ultraviolet spectroscopy, and the lipid was measured by counting the ¹⁴C label in scintillation fluid.

[2] = solute release from liposomes at 4°C; type: physicochemical; conditions: from liposomes at 4°C in 2 days
Protocol: Rates of solute release were determined by adding 145 microliters of phosphate buffered saline to 25 microliters of liposomes and centrifuging in an Airfuge (Beckman) at approximately 100,000G for 10 minutes. The liposome pellets were then counted for ¹⁴C lipid, and 100 microliters of each supernatant was diluted 5-fold with phosphate buffered saline for ultraviolet spectroscopy. […] In each case, the triphosphates are released less, and the less phosphorylated forms are released to a greater extent.

monocytes = test: superoxide generation by monocytes; type: cell-based, Human; conditions: PMA treatment (positive control), one value per test series
Protocol: Human peripheral blood mononuclear cells were obtained by standard procedures employing continuous flow cell separation (leukapheresis), such as described in Wahl, et al., Cellular Immunol. 85:373-383 (1984). The preparation was diluted in phosphate-buffered saline and layered onto gradients of Ficoll-Paque (Pharmacia-PL Biochemicals, Piscataway, N.J., USA). After centrifugation, mononuclear cells were pipetted from the interface, washed, and suspended in DMEM-GG-FCS. They were then fractionated by countercurrent centrifugal elutriation. The procedure comprises the Beckman elutriation system including a J-21 Beckman Centrifuge, a JE-6 elutriator rotor, a stroboscope, and a Masterflex pump and pumphead. The cells were loaded into the rotor and fractionated by elution at increasing flow rates. Fractions 7 and 8, highly enriched for monocytes, were pooled for use.

adherent human monocytes = test: uptake of dideoxynucleotides; type: cell-based; conditions: 37°C, drug 1 uM
Protocol: Uptake of ₃H-deoxyctidine triphosphate (³H-dCTP) was used as an indicator of the uptake of vesicle contents by cells. Uptake experiments were done by plating 5 × 10⁶ monocytes in each well of a 6-well microtiter plate (Costar) and adding reagents one or two days later. Incubations were done in DMEM-GG-FCS at 37°C. The rate of increase of dCTP content in the cells over a 9-hour period (Table 7) averaged 0.29 pmole/million cells/hr with liposomes containing 4 mM EPC. Other experiments established that ddCTP and ddCMP are not readily taken up by the cells (Table 9).

in vitro = in vitro ADME; conditions: dmem-gg-fcs
Protocol: When the same incubations were done in the absence of monocytes, the results were essentially identical.
Studies were conducted under conditions mimicking those of anti-viral tests. ddCMP: dideoxycytidine monophosphate. Data points represent integrals under HPLC peaks from gradient elution on a VYDAC nucleotide column.

- Volume of Encapsulation [1]: 1.26 microliters/micromole EPC
- Percent Release [2]: 6.2%
Structure (SMILES): Nc1ccn([C@H]2CC[C@@H](COP(=O)(O)OP(=O)(O)O)O2)c(=O)n1 [ddCDP, 2ʹ,3ʹ-dideoxycytidine 5ʹ-diphosphate]

- pmole drug/1 million cells (mean) (adherent human monocytes; 0. h): 0.05 pmole drug/1 million cells
- pmole drug/1 million cells (mean) (adherent human monocytes; 0.33 h): 0.01 pmole drug/1 million cells
- pmole drug/1 million cells (mean) (adherent human monocytes; 1.00 h): 0.19 pmole drug/1 million cells
- pmole drug/1 million cells (mean) (adherent human monocytes; 3.00 h): 0.43 pmole drug/1 million cells
- pmole drug/1 million cells (mean) (adherent human monocytes; 6.00 h): 1.30 pmole drug/1 million cells
- pmole drug/1 million cells (mean) (adherent human monocytes; 9.00 h): 1.90 pmole drug/1 million cells
- pmole drug/1 million cells (mean) (adherent human monocytes; 20.00 h): 0.81 pmole drug/1 million cells
Structure (SMILES): Nc1ccn([C@H]2CC[C@@H](CO)O2)c(=O)n1 [ddC, dideoxycytidine, reference compound]

- Volume of Encapsulation [1]: 1.29 microliters/micromole EPC
- Percent Release [2]: 45.1%
Structure (SMILES): Cc1cn([C@H]2CC[C@@H](CO)O2)c(=O)[nH]c1=O [ddT, dideoxythymidine, reference compound]

- Volume of Encapsulation [1]: 2.74 microliters/micromole EPC
- Percent Release [2]: 0.3%
Structure (SMILES): Nc1nc2c(ncn2[C@H]2CC[C@@H](COP(=O)(O)OP(=O)(O)OP(=O)(O)O)O2)c(=O)[nH]1 [ddGTP, 2ʹ,3ʹ-dideoxyguanosine 5ʹ-triphosphate]

- metabolised at 72 h (in vitro): 93%
- pmole drug/1 million cells (mean) (adherent human monocytes; 0. h): 0.07 pmole drug/1 million cells
- pmole drug/1 million cells (mean) (adherent human monocytes; 0.33 h): 0.18 pmole drug/1 million cells
- pmole drug/1 million cells (mean) (adherent human monocytes; 1.00 h): 0.22 pmole drug/1 million cells
- pmole drug/1 million cells (mean) (adherent human monocytes; 3.00 h): 0.08 pmole drug/1 million cells
- pmole drug/1 million cells (mean) (adherent human monocytes; 6.00 h): 0.20 pmole drug/1 million cells
- Volume of Encapsulation [1]: 0.76 microliters/micromole EPC
- Percent Release [2]: 6.9%
Structure (SMILES): Nc1ccn([C@H]2CC[C@@H](COP(=O)(O)O)O2)c(=O)n1 [ddCMP, 2ʹ,3ʹ-dideoxycytidine 5ʹ-monophosphate]

Second part, the compound before the results:

Structure (SMILES): Nc1ncnc2c1ncn2[C@H]1CC[C@@H](COP(=O)(O)OP(=O)(O)OP(=O)(O)O)O1 [ddATP, 2ʹ,3ʹ-dideoxyadenosine 5ʹ-triphosphate]
- Volume of Encapsulation [1]: 1.30 microliters/micromole EPC
- Percent Release [2]: 0.9%

Structure (SMILES): Cc1cn([C@H]2CC[C@@H](COP(=O)(O)OP(=O)(O)OP(=O)(O)O)O2)c(=O)[nH]c1=O [ddTTP, 2ʹ,3ʹ-dideoxythymidine 5ʹ-triphosphate]
- Volume of Encapsulation [1]: 1.61 microliters/micromole EPC
- Percent Release [2]: 0.04%

Structure (SMILES): CCCCCCCCCCCCCC(=O)O[C@@H]1[C@@H](C)[C@@]2(O)[C@@H](C=C(CO)C[C@]3(O)C(=O)C(C)=C[C@@H]23)[C@@H]2C(C)(C)[C@]12OC(C)=O [PMA, phorbol myristyl acetate, reference compound]
- Superoxide (monocytes): 3.23 (.09) nmoles/well and 3.30 (.12) nmoles/well and 3.26 (.05) nmoles/well and 3.46 (.12) nmoles/well
